{
  "source": "patent US6664274B1",
  "about": "“Piperidine derivatives as serotonine reuptake inhibitors” (Eli Lilly and Company, priority 1999, dated 2003)",
  "note": "Where a name gives a salt, the structure may show the parent alone.",
  "data": [
    {"smiles": "OC(C1CCCCC1)C(CCN1CC=C(c2cccc3sccc23)CC1)c1ccccn1", "note": "(stereo not shown) (as salt: oxalate)", "values": [
      {"measurement": "melting point", "result": "80 to 85", "unit": "°C"}
    ]}
  ]
}
